In the supplement of paper PMC10307832:

Key:
Test in all cases: relative viability (nuclei count vs DMSO), 5 days (fraction); higher = more cells survive
A-427 = system: A-427
Outline: (§1)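 Lung cancer cell lines were seeded in 1536-well plates and dosed by pin tool the next day, with either a single drug or a fixed anchor-drug dose combined with five library-drug doses (not always all listed) spaced in √10 steps. Five days later, one step fixed the cells and stained their nuclei (final 0.05% Triton X-100, 1% formaldehyde, 1 ug/ml Hoechst), and nuclei were counted on 4× images. Relative viability is the nuclei count in treated wells divided by the count in vehicle wells, and each value is the median of duplicate plates.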

NCI-H1915 = system: NCI-H1915
Outline: as §1

NCI-H1755 = system: NCI-H1755
Outline: as §1

LXF-289 = system: LXF-289
Outline: as §1

NCI-H1975 = system: NCI-H1975
Outline: as §1

NCI-H2342 = system: NCI-H2342
Outline: as §1

LC-2-ad = system: LC-2-ad
Outline: as §1

HCC-78 = system: HCC-78
Outline: as §1

NCI-H2228 = system: NCI-H2228
Outline: as §1

NCI-H1734 = system: NCI-H1734
Outline: as §1

NCI-H522 = system: NCI-H522
Outline: as §1

SW 1573 = system: SW 1573
Outline: as §1

RERF-LC-KJ = system: RERF-LC-KJ
Outline: as §1

NCI-H1792 = system: NCI-H1792
Outline: as §1

NCI-H2347 = system: NCI-H2347
Outline: as §1

PC-3 [JPC-3] = system: PC-3 [JPC-3]
Outline: as §1

HOP-62 = system: HOP-62
Outline: as §1

NCI-H2126 = system: NCI-H2126
Outline: as §1

NCI-H647 = system: NCI-H647
Outline: as §1

NCI-H358 = system: NCI-H358
Outline: as §1

SK-LU-1 = system: SK-LU-1
Outline: as §1

HCC-15 = system: HCC-15
Outline: as §1

Cc1sc2c(c1C)C(c1ccc(Cl)cc1)=N[C@@H](CC(=O)OC(C)(C)C)c1nnc(C)n1-2 [JQ1] + Nc1nc2[nH]cc(CCc3ccc(C(=O)N[C@@H](CCC(=O)O)C(=O)O)cc3)c2c(=O)[nH]1 [Pemetrexed] (partner 0.2 µM)
relative viability (A-427; first compound 0.04 µM): 0.988 | relative viability (A-427; first compound 0.1265 µM): 0.794 | relative viability (A-427; first compound 0.4 µM): 0.994 | relative viability (A-427; first compound 1.265 µM): 0.914 | relative viability (A-427; first compound 4 µM): 0.639 | relative viability (NCI-H1915; first compound 0.04 µM): 0.46 | relative viability (NCI-H1915; first compound 0.4 µM): 0.323 | relative viability (NCI-H1915; first compound 1.265 µM): 0.295 | relative viability (NCI-H1915; first compound 4 µM): 0.167 | relative viability (NCI-H1755; first compound 0.04 µM): 0.444 | relative viability (NCI-H1755; first compound 0.1265 µM): 0.444 | relative viability (NCI-H1755; first compound 0.4 µM): 0.387 | relative viability (NCI-H1755; first compound 1.265 µM): 0.323 | relative viability (NCI-H1755; first compound 4 µM): 0.324 | relative viability (LXF-289; first compound 0.04 µM): 0.915 | relative viability (LXF-289; first compound 0.1265 µM): 0.808 | relative viability (LXF-289; first compound 0.4 µM): 0.867 | relative viability (LXF-289; first compound 1.265 µM): 0.59 | relative viability (LXF-289; first compound 4 µM): 0.541 | relative viability (NCI-H1975; first compound 0.04 µM): 0.284 | relative viability (NCI-H1975; first compound 0.1265 µM): 0.233 | relative viability (NCI-H1975; first compound 0.4 µM): 0.234 | relative viability (NCI-H1975; first compound 1.265 µM): 0.19 | relative viability (NCI-H1975; first compound 4 µM): 0.173 | relative viability (NCI-H2342; first compound 0.04 µM): 0.805 | relative viability (NCI-H2342; first compound 0.1265 µM): 0.73 | relative viability (NCI-H2342; first compound 0.4 µM): 0.852 | relative viability (NCI-H2342; first compound 1.265 µM): 0.781 | relative viability (NCI-H2342; first compound 4 µM): 0.617 | relative viability (LC-2-ad; first compound 0.04 µM): 0.268 | relative viability (LC-2-ad; first compound 0.1265 µM): 0.258 | relative viability (LC-2-ad; first compound 0.4 µM): 0.244 | relative viability (LC-2-ad; first compound 1.265 µM): 0.256 | relative viability (LC-2-ad; first compound 4 µM): 0.209 | relative viability (HCC-78; first compound 0.04 µM): 0.87 | relative viability (HCC-78; first compound 0.1265 µM): 0.957 | relative viability (HCC-78; first compound 0.4 µM): 0.977 | relative viability (HCC-78; first compound 1.265 µM): 0.91 | relative viability (HCC-78; first compound 4 µM): 0.866 | relative viability (NCI-H2228; first compound 0.04 µM): 0.362 | relative viability (NCI-H2228; first compound 0.1265 µM): 0.314 | relative viability (NCI-H2228; first compound 0.4 µM): 0.358 | relative viability (NCI-H2228; first compound 1.265 µM): 0.312 | relative viability (NCI-H2228; first compound 4 µM): 0.184 | relative viability (NCI-H1734; first compound 0.04 µM): 0.358 | relative viability (NCI-H1734; first compound 0.1265 µM): 0.347 | relative viability (NCI-H1734; first compound 0.4 µM): 0.327 | relative viability (NCI-H1734; first compound 1.265 µM): 0.342 | relative viability (NCI-H1734; first compound 4 µM): 0.283 | relative viability (NCI-H522; first compound 0.04 µM): 0.929 | relative viability (NCI-H522; first compound 0.1265 µM): 0.877 | relative viability (NCI-H522; first compound 0.4 µM): 0.54 | relative viability (NCI-H522; first compound 1.265 µM): 0.59 | relative viability (NCI-H522; first compound 4 µM): 0.444 | relative viability (SW 1573; first compound 0.04 µM): 0.826 | relative viability (SW 1573; first compound 0.1265 µM): 0.789 | relative viability (SW 1573; first compound 0.4 µM): 0.598 | relative viability (SW 1573; first compound 1.265 µM): 0.398 | relative viability (SW 1573; first compound 4 µM): 0.295 | relative viability (RERF-LC-KJ; first compound 0.04 µM): 0.487 | relative viability (RERF-LC-KJ; first compound 0.1265 µM): 0.481 | relative viability (RERF-LC-KJ; first compound 0.4 µM): 0.46 | relative viability (RERF-LC-KJ; first compound 1.265 µM): 0.33 | relative viability (RERF-LC-KJ; first compound 4 µM): 0.275 | relative viability (NCI-H1792; first compound 0.04 µM): 0.705 | relative viability (NCI-H1792; first compound 0.1265 µM): 0.699 | relative viability (NCI-H1792; first compound 0.4 µM): 0.434 | relative viability (NCI-H1792; first compound 1.265 µM): 0.15 | relative viability (NCI-H1792; first compound 4 µM): 0.0524 | relative viability (NCI-H2347; first compound 0.04 µM): 0.468 | relative viability (NCI-H2347; first compound 0.1265 µM): 0.423 | relative viability (NCI-H2347; first compound 0.4 µM): 0.403 | relative viability (NCI-H2347; first compound 1.265 µM): 0.405 | relative viability (NCI-H2347; first compound 4 µM): 0.357 | relative viability (PC-3 [JPC-3]; first compound 0.04 µM): 1.16 | relative viability (PC-3 [JPC-3]; first compound 0.1265 µM): 1.12 | relative viability (PC-3 [JPC-3]; first compound 0.4 µM): 0.818 | relative viability (PC-3 [JPC-3]; first compound 1.265 µM): 0.751 | relative viability (PC-3 [JPC-3]; first compound 4 µM): 0.374 | relative viability (HOP-62; first compound 0.04 µM): 0.271 | relative viability (HOP-62; first compound 0.1265 µM): 0.266 | relative viability (HOP-62; first compound 0.4 µM): 0.26 | relative viability (HOP-62; first compound 1.265 µM): 0.137 | relative viability (HOP-62; first compound 4 µM): 0.106 | relative viability (NCI-H2126; first compound 0.04 µM): 0.71 | relative viability (NCI-H2126; first compound 0.1265 µM): 0.721 | relative viability (NCI-H2126; first compound 0.4 µM): 0.624 | relative viability (NCI-H2126; first compound 1.265 µM): 0.519 | relative viability (NCI-H2126; first compound 4 µM): 0.413 | relative viability (NCI-H647; first compound 0.04 µM): 0.156 | relative viability (NCI-H647; first compound 0.1265 µM): 0.125 | relative viability (NCI-H647; first compound 0.4 µM): 0.105 | relative viability (NCI-H647; first compound 1.265 µM): 0.0945 | relative viability (NCI-H647; first compound 4 µM): 0.0741 | relative viability (NCI-H358; first compound 0.04 µM): 0.185 | relative viability (NCI-H358; first compound 0.1265 µM): 0.198 | relative viability (NCI-H358; first compound 0.4 µM): 0.199 | relative viability (NCI-H358; first compound 1.265 µM): 0.16 | relative viability (NCI-H358; first compound 4 µM): 0.153 | relative viability (SK-LU-1; first compound 0.04 µM): 0.974 | relative viability (SK-LU-1; first compound 0.1265 µM): 0.766 | relative viability (SK-LU-1; first compound 0.4 µM): 0.607 | relative viability (SK-LU-1; first compound 1.265 µM): 0.278 | relative viability (SK-LU-1; first compound 4 µM): 0.181 | relative viability (HCC-15; first compound 0.04 µM): 0.238 | relative viability (HCC-15; first compound 0.1265 µM): 0.224 | relative viability (HCC-15; first compound 0.4 µM): 0.19 | relative viability (HCC-15; first compound 1.265 µM): 0.182 | relative viability (HCC-15; first compound 4 µM): 0.199
